Source: patent US5922871A, “Terephthalamide derivatives” (Dongwha Pharmaceutical Ind. Co., Ltd., priority 1997, dated 1999)

Experiments:
[1] = molecular target: T1, HBV polymerase reverse transcriptase (HBV-RT) (Hepatitis B virus genotype D subtype ayw, UniProt P03156); assay: inhibitory activity against HBV polymerase in vitro (reverse transcriptase activity); type: biochemical; conditions: read-out: Inhibitory effect of HBV-RT; for inhibition at 0.1 µg/mL: 0.1 μg/ml; for inhibition at 1 µg/mL: 1 μg/ml
T1 construct: made in house; host or cells: E. coli
T1 sequence (P03156 whole entry): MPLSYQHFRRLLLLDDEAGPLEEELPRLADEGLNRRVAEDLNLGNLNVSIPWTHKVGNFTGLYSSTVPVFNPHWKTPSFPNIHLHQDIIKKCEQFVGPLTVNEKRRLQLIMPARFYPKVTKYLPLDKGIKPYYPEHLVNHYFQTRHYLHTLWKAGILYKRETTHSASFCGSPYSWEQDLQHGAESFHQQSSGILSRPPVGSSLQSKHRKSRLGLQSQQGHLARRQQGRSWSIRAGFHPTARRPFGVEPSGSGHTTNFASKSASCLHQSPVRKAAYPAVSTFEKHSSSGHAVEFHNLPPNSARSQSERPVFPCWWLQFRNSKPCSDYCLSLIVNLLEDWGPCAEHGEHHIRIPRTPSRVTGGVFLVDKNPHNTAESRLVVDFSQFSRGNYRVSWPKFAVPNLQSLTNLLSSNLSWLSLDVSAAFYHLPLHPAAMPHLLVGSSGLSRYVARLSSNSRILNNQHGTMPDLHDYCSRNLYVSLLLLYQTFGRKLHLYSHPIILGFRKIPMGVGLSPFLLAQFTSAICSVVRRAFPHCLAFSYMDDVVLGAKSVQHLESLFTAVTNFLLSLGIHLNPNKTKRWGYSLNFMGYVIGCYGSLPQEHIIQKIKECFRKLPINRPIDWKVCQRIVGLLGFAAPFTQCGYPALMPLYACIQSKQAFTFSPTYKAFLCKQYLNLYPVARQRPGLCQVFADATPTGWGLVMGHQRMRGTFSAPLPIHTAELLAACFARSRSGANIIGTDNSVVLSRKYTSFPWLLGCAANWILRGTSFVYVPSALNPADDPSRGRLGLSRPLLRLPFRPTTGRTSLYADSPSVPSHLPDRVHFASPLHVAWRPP
From the text: Experiment 1: The inhibitory activity against HBV polymerase in vitro.
Recently, the inventors of the present invention have produced a recombinant HBV polymerase that is expressed from E.coli transformant, measured its enzyme activity and filed patent applications thereof [Korean Patent Application Nos. 94-3918, 96-33998 and 96-63255].
The inventions have established a method of measuring the reverse transcriptase activity of HBV polymerase in vitro. The fundamental principle is the same as the ELISA method, and after reacting the substrate with biotin- and DIG-modified nucleotide, a method of recognizing the polymerized substrate as anti-DIG antibody with peroxidase was used. […] and 20 μ of test compound were mixed and reacted at 14~30° C. for 18~24 hours. Then, the inhibitory effect of test compound against reverse trascriptase activity in the HBV polymerase was examined, compared with the results of control tests without the test compound.

[2] = molecular target: T2, HIV reverse transcriptase (HIV-RT) (Human immunodeficiency virus type 1 group M subtype B, UniProt P04585); assay: in vitro inhibition test against HIV reverse transcriptase; type: biochemical, HIV (AIDS virus); conditions: read-out: Inhibitory effect of HIV-RT; for inhibition at 0.1 µg/mL: 0.1 μg/ml; for inhibition at 1 µg/mL: 1 μg/ml
T2 construct: purchased Boehringer Mannheim
Method: Experiment 3: The in vitro inhibition test against HIV reverse transcriptase
The inhibitory activity in vitro was measured using a non-radioactive reverse transcriptase assay Kit (Boehringer Mannheim).
At first, 20 μl(40 ng) HIV-RT was added to the wells coated with streptavidin and with the addition of 20 μl, reaction mixture containing template/primer hybrid poly(A)/oligo(dT)15 and DIG-(digoxigenin)-dUTP, biotin-dUTP and TTP, 20 μl test compound was added and reacted at 37° C. for 1 hour. The control without test compound was used for the comparison of related activity. Since DNA containing nucleotide labeled with digoxigenin and biotine was prepared by the action of HIV-RT, it was combined with streptavidin coated at the bottom of the wells. After the reaction was completed, remaining impurities were removed by washing each well with 20 μl buffer solution (pH 7.0) for 30 seconds 5 times and with the addition of 200 μl anti-DIG-POD antibody, the mixture was reacted at 37° C. for 1 hour. For the removal of remaining impurities again, the reacting solution was washed with a buffer solution and with the addition of 200μl ABTS™ each, a substrate of POD(peroxidase), the solution was reacted at room temperature for 30 minutes. The absorbance was read by ELISA reader at 405 nm for the assay of reverse transcriptase activity and its inhibition activity.

Compound | inhibition at 0.1 µg/mL [1] | inhibition at 1 µg/mL [1] | inhibition at 0.1 µg/mL [2] | inhibition at 1 µg/mL [2]
CC(C)Nc1cccnc1N1CCN(C(=O)c2ccc(C(=O)NCCCO)cc2)CC1 [Compound No. 2, 1-[N-(3-Hydroxypropyl)carbamoyl]-4-[1-[3-(isopropylamino)-2-pyridyl]piperazin-4-yl-carbonyl]benzene] | 34% | 42% | 35% | 40%
CC(C)Nc1cccnc1N1CCN(C(=O)c2ccc(C(=O)N(C)CCO)cc2)CC1 [Compound No. 5, 1-[N-(2-Hydroxyethyl)-N-methylcarbamoyl]-4-[1-[3-(isopropylamino)-2-pyridyl]piperazin-4-yl-carbonyl]benzene] | 40% | 48% | 43% | 71%
CC(C)Nc1cccnc1N1CCN(C(=O)c2ccc(C(=O)N(CCO)c3ccccc3)cc2)CC1 [Compound No. 11, 1-[N-(2-Hydroxyethyl)-N-phenylcarbamoyl]-4-[1-[3-(isopropylamino)-2-pyridyl]piperazin-4-yl-carbonyl]benzene] | 20% | 76% | 43% | 50%
CC(O)CN(CC(C)O)C(=O)c1ccc(C(=O)N2CCN(c3ncccc3NC(C)C)CC2)cc1 (stereo not shown) [Compound No. 16, 1-[N,N-Bis(2-hydroxypropyl)carbamoyl]-4-[1-[3-(isopropylamino)-2-pyridyl]piperazin-4-yl-carbonyl]benzene] | 45% | 78% | 52% | 65%
CC(C)Nc1cccnc1N1CCN(C(=O)c2ccc(C(=O)N3CCN(CCOCCO)CC3)cc2)CC1 [Compound No. 32, 4-[2-(2-Hydroxyethoxy)ethyl]-1-[4-[1-[3-(isopropylamino)-2-pyridyl]piperazin-4-yl-carbonyl]benzoyl]piperazine] | 40% | 71% | 27% | 58%
CC(C)Nc1cccnc1N1CCN(C(=O)c2ccc(C(=O)NC(C)(C)CO)cc2)CC1 [Compound No. 34, 1-[N-(1,1-Dimethyl-2-hydroxyethyl)carbamoyl]-4-[1-[3-(isopropylamino)-2-pyridyl]piperazin-4-yl-carbonyl]benzene] | 41% | 53% | 43% | 51%
CC(C)Nc1cccnc1N1CCN(C(=O)c2ccc(C(=O)N[C@H](CO)C(C)C)cc2)CC1 [Compound No. 38, 1-[N-[(1S)-2-Hydroxy-1-(1-methylethyl)ethyl]carbamoyl]-4-[1-[3-(isopropylamino)-2-pyridyl]piperazin-4-yl-carbonyl]benzene] | 50% | 67% | 20% | 78%
CC(C)Nc1cccnc1N1CCN(C(=O)c2ccc(C(=O)N[C@@H](CO)C(C)C)cc2)CC1 [Compound No. 39, 1-[N-[(1R)-2-Hydroxy-1-(1-methylethyl)ethyl]carbamoyl]-4-[1-[3-(isopropylamino)-2-pyridyl]piperazin-4-yl-carbonyl]benzene] | 30% | 78% | 25% | 75%
CC(C)Nc1cccnc1N1CCN(C(=O)c2ccc(C(=O)N[C@H](CO)c3ccccc3)cc2)CC1 [Compound No. 48, 1-[N-[(1S)-2-Hydroxy-1-phenylethyl]carbamoyl]-4-[1-[3-(isopropylamino)-2-pyridyl]piperazin-4-yl-carbonyl]benzene] | 61% | 80% | 46% | 51%
COCCNC(=O)c1ccc(C(=O)N2CCN(c3ncccc3NC(C)C)CC2)cc1 [Compound No. 61, 4-[1-[3-(Isopropylamino)-2-pyridyl]piperazin-4-yl-carbonyl]-1-[N-(2-methoxyethyl)carbamoyl]benzene] | 33% | 81% | 32% | 65%
COCCN(CCOC)C(=O)c1ccc(C(=O)N2CCN(c3ncccc3NC(C)C)CC2)cc1 [Compound No. 62, 1-[N,N-Bis(2-methoxyethyl)carbamoyl]-4-[1-[3-(isopropylamino)-2-pyridyl]piperazin-4-yl-carbonyl]benzene] | 53% | 60% | 41% | 58%
CC(C)Nc1cccnc1N1CCN(C(=O)c2ccc(C(=O)N3CCOCC3)cc2)CC1 [Compound No. 76, 4-[1-[3-(Isopropylamino)-2-pyridyl]piperazin-4-yl-carbonyl]-1-(morpholin-4-yl-carbonyl)benzene] | 49% | 79% | 43% | 52%
CC(C)Nc1cccnc1N1CCN(C(=O)c2ccc(C(=O)N3CCSCC3)cc2)CC1 [Compound No. 77, 4-[1-[3-(Isopropylamino)-2-pyridyl]piperazin-4-yl-carbonyl]-1-(thiomorpholin-4-yl-carbonyl)benzene] | – | – | 28% | 40%
CC(C)Nc1cccnc1N1CCN(C(=O)c2ccc(C(=O)NCCN3CCOCC3)cc2)CC1 [Compound No. 79, 4-[1-[3-(Isopropylamino)-2-pyridyl]piperazin-4-yl-carbonyl]-1-[N-[2-(morpholin-4-yl)ethyl]carbamoyl]benzene] | 65% | 72% | 59% | 71%
CC(C)Nc1cccnc1N1CCN(C(=O)c2ccc(C(=O)NCCCN3CCOCC3)cc2)CC1 [Compound No. 80, 4-[1-[3-(Isopropylamino)-2-pyridyl]piperazin-4-yl-carbonyl]-1-[N-[3-(morpholin-4-yl)propyl]carbamoyl]benzene] | 40% | 66% | 43% | 56%
CC(C)Nc1cccnc1N1CCN(C(=O)c2ccc(C(=O)NCCN3CCCCC3)cc2)CC1 [Compound No. 81, 4-[1-[3-(Isopropylamino)-2-pyridyl]piperazin-4-yl-carbonyl]-1-[N-[2-(piperidin-1-yl)ethyl]carbamoyl]benzene] | – | – | 32% | 60%
CC(C)Nc1cccnc1N1CCN(C(=O)c2ccc(C(=O)NCCN(C)C)cc2)CC1 [Compound No. 83, 1-[N-[2-(Dimethylamino)ethyl]carbamoyl]-4-[1-[3-(isopropylamino)-2-pyridyl]piperazin-4-yl-carbonyl]benzene] | 62% | 65% | 62% | 65%
